Test results: patent US20080226605A1, “Methods and Compositions Facilitating Entry of Compounds Into Cells” (priority 2005, published 2008)

Experiments:
Type in all cases: cell-based, Human
DU145 cells [1] = experiment: EGFP reporter uptake (pEGFP transfection, flow cytometry)
Description: (§1) Cell culture. Human prostate cancer cells DU145 were grown in RPMI 1640 medium, supplemented with 10% heat-inactivated fetal bovine serum (Life Technologies) under standard conditions (Carbone et al., Nucleic Acids Res. 2003, 31, 833-843; Carbone et al., Nucleic Acids Res 2004, 32, 4358-4367).
EGFP reporter uptake. DU145 cells were plated in 6-well plates at a density of 1.5×10^5 cells/well, grown overnight and then transfected. Trasfection mixtures contained 4 μg of pEGFP reporter plasmid with or without addition of neomycin and DOTAP at a 1:5 ratio as described above. Cells were incubated with the transfection complexes for 5 hours, then the medium was removed and replaced with fresh medium. After 24 hours, cells were harvested […], recovered by centrifugation, washed once with PBS, and then analyzed using a FACSCalibur (Becton Dickinson). Data were analyzed using Cell Quest software.
The effects of neomycin on transfection efficiency were further examined using another reporter system, a plasmid expressing green fluorescent protein, the pEGFP reporter vector. DU145 cells were transfected with the pEGFP plasmid in the presence of DOTAP, neomycin or both DOTAP and neomycin. After 24 hours, cells were collected and analyzed for EGFP expression by flow cytometry to examine both fluorescence intensity and percentage of EGFP-positive cells. […]

DU145 cells [2] = experiment: Cellular uptake of fluorescein-labeled oligonucleotide (F-TFO), flow cytometry; conditions: F-TFO 125 nM; for percentage of fluorescein-positive cells: neomycin 5 μM where present
Description: as §1
Oligonucleotides and other reagents. The fluorescein-conjugated phosphorothioate oligonucleotide (F-TFO) was purchased from Sigma. The oligonucleotide was purified by high-performance liquid chromatography (HPLC). The sequence of the F-TFO, which is identical to the Ets2-TFO, has been published previously (Carbone et al., Nucleic Acids Res. 2003, 31, 833-843). Stock solutions of oligonucleotides were made in sterile water. Oligonucleotide concentrations were determined with a spectrophotometer using appropriate nucleotide extinction coefficients. DOTAP (1,2-dioleoyl-3-trimethyl-ammonium-propane) was purchased from Roche (Indianapolis, Ind.). Neomycin was purchased from Sigma, and used as described previously (Arya et al., J. Am. Chem. Soc. 2003, 125, 3733-3744).
Cellular uptake of oligonucleotides. Uptake of F-TFO and dauno-GT11 was examined 24 hours after transfection of DU145 cells (1.5×10^5 cells/well in 6-well plates) with DOTAP with or without the addition of neomycin as described above. Concentration of F-TFO was 125 nM, corresponding to about 1 μg of DNA/well. After 24 hours, cells were washed and analyzed using a FACSCalibur as described above.
Neomycin positively affected transfection efficiency of plasmid DNA mediated by DOTAP. This effect could be mediated by an increase in intracellular uptake and/or by an enhanced release of DNA from lipid complex into the cytoplasm. […] For the tests shown in FIG. 3, a phosporothioate oligonucleotide directed to the Ets2 gene promoter (Ets2-TFO) was conjugated at the 5′ end with fluorescein (Carbone et al., Nucleic Acids Res. 2003, 31, 833). Cells were transfected with the fluorescein labeled TFO (F-TFO) for 6 hours and then incubated for 24 hours in fresh medium before the analysis by flow cytometry. At the concentration used in the test, only about 7% of cells were fluorescein-positive when transfected with DOTAP alone. The percentage of fluorescein-positive cells increased to about 50% when the oligonucleotide was delivered using the combination of DOTAP and neomycin. Therefore, neomycin enhanced uptake of the F-TFO by approximately 7-fold.

DU145 cells [3] = experiment: Luciferase reporter assay (transfection of reporter plasmids); conditions: neomycin added to the medium after the transfection
Description: as §1
Reporter plasmids. The reporter plasmid pGL3-Ets2 containing the firefly luciferase gene under control of Ets2 promoter has been previously described (Carbone et al., Nucleic Acids Res 2004, 32, 4358-4367). The pRL-SV40 reporter plasmid was purchased from Promega. The pEGFP plasmid was obtained from Clontech.
Luciferase reporter assay. DU145 cells were plated in 48-well plates at a density of 1.5×10^4 cells/well. After 24 hours, cells were transfected with DOTAP-DNA complexes as previously described (Carbone et al., Nucleic Acids Res. 2003, 31, 833-843). […] Mixtures of DNA-DOTAP and DNA-DOTAP-neomycin were allowed to sit at room temperature for 15 minutes for complex formation. […] Luciferase activity was measured with the Luciferase assay system from Promega.
The effects of neomycin in combination with the cationic lipid preparation DOTAP on the uptake of luciferase reporter plasmids was determined. […] The efficiency of transfection as assessed by the luciferase assay increased as the concentration of neomycin increased from 0.5 to 5 μM (FIG. 1A). […]

[4] = flow cytometry 24 hours after transfection

CCCCCCCC/C=C\CCCCCCCC(=O)OCC(C[N+](C)(C)C)OC(=O)CCCCCCC/C=C\CCCCCCCC (stereo not shown) [DOTAP, 1,2-dioleoyl-3-trimethyl-ammonium-propane]
mean fluorescent intensity (EGFP) (DU145 cells [1]; pEGFP plasmid 4 μg, flow cytometry after 24 hours): 27.8 | mean fluorescent intensity (F-TFO) (DU145 cells [2]; [4]): 19.4 | percentage of fluorescein-positive cells (DU145 cells [2]; [4]): about 7%

neomycin
effect on luciferase reporter activity (DU145 cells [3]): No effect | efficiency of DNA uptake (DU145 cells [1]; pEGFP plasmid, neomycin alone (5 μM), without DOTAP): marginally affected | percentage of fluorescein-positive cells (DU145 cells [2]; [4]): 2.4% | oligonucleotide uptake (DU145 cells [2]; neomycin alone (5 μM), without DOTAP): did not affect
